The values below come from patent publication US20240261417A1, “SOS1 DEGRADING AGENT AND PREPARATION METHOD THEREFOR AND APPLICATION THEREOF” (SHANGHAI LEADINGTAC PHARMACEUTICAL CO. LTD., priority 2021, published 2024).

In general, DC50 refers to the midpoint of the concentration-degradation curve. What is called Dmax is the largest share of the target that was removed.

The assay has as its target T1, SOS1 protein (Homo sapiens, UniProt Q07889).
T1 sequence (Q07889 1-1333): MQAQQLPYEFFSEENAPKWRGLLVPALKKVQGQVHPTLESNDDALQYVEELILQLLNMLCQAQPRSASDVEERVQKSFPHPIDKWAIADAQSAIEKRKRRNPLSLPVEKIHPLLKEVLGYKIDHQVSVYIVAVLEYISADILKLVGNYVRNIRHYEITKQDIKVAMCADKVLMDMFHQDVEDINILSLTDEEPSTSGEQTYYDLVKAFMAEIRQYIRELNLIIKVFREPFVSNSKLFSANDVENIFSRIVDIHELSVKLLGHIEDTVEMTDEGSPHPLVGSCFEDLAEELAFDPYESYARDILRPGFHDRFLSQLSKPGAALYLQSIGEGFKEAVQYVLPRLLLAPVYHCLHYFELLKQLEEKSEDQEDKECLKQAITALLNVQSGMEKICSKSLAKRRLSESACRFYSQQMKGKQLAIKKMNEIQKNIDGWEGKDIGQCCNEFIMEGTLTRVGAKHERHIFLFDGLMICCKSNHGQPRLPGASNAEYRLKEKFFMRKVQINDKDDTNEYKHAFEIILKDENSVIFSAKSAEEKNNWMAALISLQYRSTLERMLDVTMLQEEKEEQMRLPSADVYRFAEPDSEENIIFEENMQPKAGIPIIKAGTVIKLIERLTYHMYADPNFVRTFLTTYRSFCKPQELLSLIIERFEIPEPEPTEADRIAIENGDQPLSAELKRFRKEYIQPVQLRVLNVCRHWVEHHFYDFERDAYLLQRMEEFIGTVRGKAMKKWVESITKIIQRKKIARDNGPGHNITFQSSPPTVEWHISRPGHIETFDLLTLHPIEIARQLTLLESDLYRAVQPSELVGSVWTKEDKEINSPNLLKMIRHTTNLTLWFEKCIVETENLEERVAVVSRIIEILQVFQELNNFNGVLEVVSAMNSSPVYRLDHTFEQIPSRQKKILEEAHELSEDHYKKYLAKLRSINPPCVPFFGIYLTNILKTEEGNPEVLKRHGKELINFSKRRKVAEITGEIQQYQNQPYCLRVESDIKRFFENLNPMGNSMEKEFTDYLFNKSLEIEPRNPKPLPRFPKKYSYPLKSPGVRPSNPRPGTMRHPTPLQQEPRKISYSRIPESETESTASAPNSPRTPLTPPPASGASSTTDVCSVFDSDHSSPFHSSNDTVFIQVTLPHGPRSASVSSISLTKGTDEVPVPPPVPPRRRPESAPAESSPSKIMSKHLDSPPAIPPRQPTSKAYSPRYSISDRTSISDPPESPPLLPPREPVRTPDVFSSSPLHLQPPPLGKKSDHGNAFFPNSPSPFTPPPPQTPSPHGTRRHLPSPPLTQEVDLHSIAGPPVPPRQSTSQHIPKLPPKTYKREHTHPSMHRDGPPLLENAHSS
The assay can be described thus: SOS1 degradation assay (Western blot), NCI-H358 cells. Also noted: The degradation of SOS1 by the compounds was investigated on KRAS G12C mutant human non-small cell lung cancer cells NCI-H358; host or cells: NCI-H358 (human cancer cell lines). Type of assay: cell-based. The settings on record: for DC50: read-out: NCI-H358 (G12C) DC50. On the procedure:
The specific procedures were as follows:
0.95 mL of cells were seeded into each well of a 24-well cell culture plate to achieve a cell density of 5×10^5 cells/well; the cell plate was incubated in an incubator at 37° C. with 5% CO2 overnight. Then 50 μL of the compound solution after dilution was added to each of the wells with the corresponding cells, so that the final concentration of the compound was in a range of 0.03-3000 nM. […] After dosing, the cell plate was incubated in an incubator at 37° C. with 5% CO2 for 24 h. […] After the plate was left to stand on ice for 30 min, the protein lysate in each well was transferred to a 1.5 mL centrifuge tube and centrifuged at 15000 g for 20 min at 4° C. The cell lysate supernatant after centrifugation was cryopreserved at −80° C. for testing and was used for determining the degradation level of the SOS1 protein by a WB method. The concentration of total protein in the cell lysate supernatant was determined using the BCA Protein Quantification Kit (Tiangen, PA115-02).
The concentration of total protein in the cell lysate was determined by BCA. The total protein was adjusted to 0.5 μg/μL with PBS and 5× SDS-PAGE protein loading buffer (Beyotime, P0015L), incubated in a water bath at 100° C. for 15 min, incubated in an ice bath on ice for 5 min, centrifuged at 14000 g for 1 min at 4° C., and mixed well as a loading sample for WB. Protein electrophoresis was performed on a precast gel (KeyGEN, KGMGO10W15) with a loading volume of 10 μL (total protein: 5 μg) using a Tris-MOPS-SDS running solution (Adamas, P1598253) at a constant voltage of 120 V for 55 min. After the electrophoresis, the protein on the gel strip was transferred to a PVDF membrane at a constant current of 250 mA for 65 min. After the membrane transfer, the membrane was incubated in 1× QuickBlock blocking buffer (Beyotime, P0235) for 30 min at room temperature. […] The protein map was subjected to gray value analysis by the chemiluminescence imaging system from Clinx. […] Then the degradation rate was calculated by comparing the gray correction value with the gray correction value of the control group. Then nonlinear curve fitting was performed by GraphPad Prism 8 in the logarithmic concentration-inhibition rate to obtain the DC50 and Dmax values of the compounds.
(In general: Immunoblotting shows a protein as a band on a membrane.)

Setting [1] is: SOS1 degradation, NCI-H358 cells, 24 h, Western blot.
Where [2] appears, read: SOS1 degradation, NCI-H358 cells, 24 h, Western blot, read-out: NCI-H358 (G12C) Dmax.

SMILES strings stand for the structures. Read-outs that look alike come from different tables or passages of the source.

On to `COc1cc2nc(C)nc(N[C@H](C)c3cc(N)cc(C(F)(F)F)c3)c2cc1[C@H]1CC[C@H](C(=O)N2CCC(CCC3CCN(C(=O)c4ccc(Cl)c(N5CCC(=O)NC5=O)c4)CC3)CC2)CC1` [Example 15, 1-(5-(4-(2-(1-((1R,4R)-4-(4-(((R)-1-(3-amino-5-(trifluoromethyl)phenyl)ethyl)amino)-7-methoxy-2-methylquinazolin-6-yl)cyclohexane-1-carbonyl)piperidin-4-yl)ethyl)piperidine-1-carbonyl)-2-chlorophenyl)dihydropyrimidine-2,4(1H,3H)-dione], for which the DC50 under setting [1] is 1 to 10 µM. Further, the Dmax under setting [2] is below 30%.
For `COc1cc2nc(C)nc(N[C@H](C)c3cccc(C(F)(F)F)c3F)c2cc1[C@H]1CC[C@H](C(=O)N2CCN(CC3CCC4(CC3)CCN(C(=O)c3ccc(Cl)c(N5CCC(=O)NC5=O)c3)CC4)CC2)CC1` [Example 16, 1-(2-chloro-5-(9-((4-((1R,4R)-4-(4-(((R)-1-(2-fluoro-3-(trifluoromethyl)phenyl)ethyl)amino)-7-methoxy-2-methylquinazolin-6-yl)cyclohexane-1-carbonyl)piperazin-1-yl)methyl)-3-azaspiro[5.5]undecane-3-carbonyl)phenyl)dihydropyrimidine-2,4(1H,3H)-dione], in that order: 0.5 to 1 µM and 50 to 80%.
For `COc1cc2nc(C)nc(N[C@H](C)c3cc(NC(C)=O)cc(C(F)(F)F)c3)c2cc1[C@H]1CC[C@H](C(=O)N2CCN(CC3CCC4(CC3)CCN(C(=O)c3ccc(Cl)c(N5CCC(=O)NC5=O)c3)CC4)CC2)CC1` [Example 17, N-(3-((R)-1-((6-((1R,4R)-4-(4-((3-(4-chloro-3-(2,4-dioxotetrahydropyrimidin-1(2H)-yl)benzoyl)-3-azaspiro[5.5]undecane-9-yl)methyl)piperazine-1-carbonyl)cyclohexyl)-7-methoxy-2-methylquinazolin-4-yl)amino)ethyl)-5-(trifluoromethyl)phenyl)acetamide], in that order: 1 to 10 µM and 30 to 50%.
With `COc1cc2nc(C)nc(N[C@H](C)c3cc(NC(C)C)cc(C(F)(F)F)c3)c2cc1[C@H]1CC[C@H](C(=O)N2CCN(CC3CCC4(CC3)CCN(C(=O)c3ccc(Cl)c(N5CCC(=O)NC5=O)c3)CC4)CC2)CC1` [Example 18, 1-(2-chloro-5-(9-((4-((1R,4R)-4-(4-(((R)-1-(3-(isopropylamino)-5-(trifluoromethyl)phenyl)ethyl)amino)-7-methoxy-2-methylquinazolin-6-yl)cyclohexane-1-carbonyl)piperazin-1-yl)methyl)-3-azaspiro[5.5]undecane-3-carbonyl)phenyl)dihydropyrimidine-2,4(1H,3H)-dione], the Dmax (NCI-H358, read-out: NCI-H358 (G12C) Dmax) was below 30%. Also, the DC50 under setting [1] was 1 to 10 µM.
For the molecule `COc1cc2nc(C)nc(N[C@H](C)c3cc(N)cc(C(F)(F)F)c3)c2cc1[C@H]1CC[C@H](C(=O)N2CCN(CC3CCC4(CC3)CCN(C(=O)c3cccc(N5CCC(=O)NC5=O)c3)CC4)CC2)CC1` [Example 21, 1-(3-(9-((4-((1R,4R)-4-(4-(((R)-1-(3-amino-5-(trifluoromethyl)phenyl)ethyl)amino)-7-methoxy-2-methylquinazolin-6-yl)cyclohexane-1-carbonyl)piperazin-1-yl)methyl)-3-azaspiro[5.5]undecane-3-carbonyl)phenyl)dihydropyrimidine-2,4(1H,3H)-dione], the DC50 under setting [1] lay in the range of 1 to 10 µM. For the same molecule, the Dmax under setting [2] fell in the range of 30 to 50%.
With `COc1cc2nc(C)nc(N[C@H](C)c3cc(N)cc(C(F)(F)F)c3)c2cc1[C@H]1CC[C@H](C(=O)N2CCN(CC3CCC4(CC3)CCN(C(=O)c3ccc(N5CCC(=O)NC5=O)cc3)CC4)CC2)CC1` [Example 22, 1-(4-(9-((4-((1R,4R)-4-(4-(((R)-1-(3-amino-5-(trifluoromethyl)phenyl)ethyl)amino)-7-methoxy-2-methylquinazolin-6-yl)cyclohexane-1-carbonyl)piperazin-1-yl)methyl)-3-azaspiro[5.5]undecane-3-carbonyl)phenyl)dihydropyrimidine-2,4(1H,3H)-dione], the DC50 under setting [1] was 1 to 10 µM. Further, the Dmax under setting [2] lay in the range of 30 to 50%.
Consider `COc1cc2nc(C)nc(N[C@H](C)c3cc(N)cc(C(F)(F)F)c3)c2cc1C1CCC(C(=O)N2CCN(CC3CCC4(CC3)CCN(C(=O)c3ccc(C5CCC(=O)NC5=O)cc3)CC4)CC2)CC1` (stereo partly drawn) [Example 23, 3-(4-(9-((4-((1R,4R)-4-(4-(((R)-1-(3-amino-5-(trifluoromethyl)phenyl)ethyl)amino)-7-methoxy-2-methylquinazolin-6-yl)cyclohexane-1-carbonyl)piperazin-1-yl)methyl)-3-azaspiro[5.5]undecane-3-carbonyl)phenyl)piperidine-2,6-dione], for which, under setting [1], the “NCI-H358 (G12C) Dmax” value is listed as “B (when 50≤Dmax (%)<80, the level was B)” and the DC50 was below 0.05 µM.
Consider `COc1cc2nc(C)nc(N[C@H](C)c3cc(N)cc(C(F)(F)F)c3)c2cc1[C@H]1CC[C@H](C(=O)N2CCN(CC3CCC4(CC3)CCN(C(=O)c3ccc(F)c(N5CCC(=O)NC5=O)c3)CC4)CC2)CC1` [Example 24, 1-(5-(9-((4-((1R,4R)-4-(4-(((R)-1-(3-amino-5-(trifluoromethyl)phenyl)ethyl)amino)-7-methoxy-2-methylquinazolin-6-yl)cyclohexane-1-carbonyl)piperazin-1-yl)methyl)-3-azaspiro[5.5]undecane-3-carbonyl)-2-fluorophenyl)dihydropyrimidine-2,4(1H,3H)-dione], for which the DC50 under setting [1] is below 0.05 µM. In addition, the Dmax under setting [2] is 80 to 100%.
Regarding `COc1cc2nc(C)nc(N[C@H](C)c3cc(N)cc(C(F)(F)F)c3)c2cc1[C@H]1CC[C@H](C(=O)N2CCC(CCN(C)CC3CCN(C(=O)c4ccc(Cl)c(N5CCC(=O)NC5=O)c4)CC3)CC2)CC1` [Example 25, 1-(5-(4-(((2-(1-((1R,4R)-4-(4-(((R)-1-(3-amino-5-(trifluoromethyl)phenyl)ethyl)amino)-7-methoxy-2-methylquinazolin-6-yl)cyclohexane-1-carbonyl)piperidin-4-yl)ethyl)(methyl)amino)methyl)piperidine-1-carbonyl)-2-chlorophenyl)dihydropyrimidine-2,4(1H,3H)-dione], the DC50 under setting [1] lay in the range of 1 to 10 µM. The Dmax under setting [2] was below 30%.
